Measurements: patent publication US9585854B2, “N-acetyl-L-cysteine for use in in vitro fertilization” (IASOMAI AB, priority 2012, dated 2017)
Read-outs that look alike come from different tables or passages of the source. Where a SMILES comes first, the peptide text is derived from it. Bridges are numbered along the chain shown (N, C = ends). [ ]: non-standard residue; d: D form. Orn = NCCC[C@H](N)C(=O)O; Mpa = O=C(O)CCS

What was measured:
[1] = tested on: pregnancy rates after IVF-ET; conditions: cited from earlier work
[2] = tested on: embryo implantation; test: embryo implantation in oxytocin-treated mice; type: in vivo; conditions: mice given oxytocin
Excerpt: Indeed, in mice, NAC was confirmed to support embryo implantation. In the animal model, embryo implantation rate was decreased when the mice were given oxytocin.
In mice, NAC was confirmed to support embryo implantation. In the animal model, embryo implantation rate was decreased when the mice were given oxytocin.

[3] = tested on: RGD recognition sites on integrins; conditions: cited from earlier work
[4] = tested on: oxytocin antagonist; implantation after IVF; conditions: cited from earlier work
[5] = tested on: Isolated uteri from virgin Wistar rats; test: isolated organ bath study of uterine contractions; design: species or system rat
Method: Animals were kept at 22° C., housed 3 per cage and fed ad libitum. Isolated uteri from virgin Wistar rats (200-280 g) in estrous, which was determined by examination of a daily vaginal smear, were used.
Protamine sulphate (PS) and NAC were dissolved in pure water.
All rats were sacrificed by cervical dislocation. The uterine horns were excised, carefully cleaned and mounted vertically in a 10 ml volume organ bath containing De Jalon's solution (NaCl 154 mM, KCl 5.6 mM, CaCl2×2H2O 0.41 mM, NaHCO 2 5.9 mM and glucose 2.8 mM), under 1 g tension, aerated with 95% oxygen and 5% carbon dioxide at 37° C. […] After 10 min increasing concentrations of PS were added until the total cessation of contractions was observed.
Myometrial tension was recorded isometrically with an organ bath and transducer.
Effects of treatments on uterine contractions were calculated as percentages for control, untreated and contracting conditions. Each data value is expressed as the mean±SEM. differences between groups were analyzed by two-way ANOVA. EC50 values were compared using one-way ANOVA

CN1C(C(=O)Nc2ccccn2)=C(O)c2ccccc2S1(=O)=O [piroxicam]
effect on pregnancy rates [1]: positive effect

CC[C@H](C)[C@@H]1NC(=O)[C@H](Cc2ccc(O)cc2)NC(=O)[C@@H](N)CSSC[C@@H](C(=O)N2CCC[C@H]2C(=O)N[C@@H](CC(C)C)C(=O)NCC(N)=O)NC(=O)[C@H](CC(N)=O)NC(=O)[C@H](CCC(N)=O)NC1=O [oxytocin]
embryo implantation rate [2]: decreased

CC(=O)[C@H]1CC[C@H]2[C@@H]3CCC4=CC(=O)CC[C@]4(C)[C@H]3CC[C@]12C [Progesterone]
effect on pregnancy rates [1]: no benefit

Arg-Gly-Asp (RGD) peptide [RGD peptide]
rat blastocyst attachment to Ishikawa cells ([3]; either the blastocysts or the Ishikawa cells pre-incubated): significant reduction in blastocyst attachment
rat blastocyst attachment to Ishikawa cells ([3]; pre-treatment of both blastocysts and Ishikawa cells): inhibited blastocyst attachment, but not completely

CCOc1ccc(C[C@H]2NC(=O)CCSSC[C@@H](C(=O)N3CCC[C@H]3C(=O)N[C@@H](CCCN)C(=O)NCC(N)=O)NC(=O)[C@H](CC(N)=O)NC(=O)[C@H]([C@@H](C)O)NC(=O)[C@H]([C@@H](C)CC)NC2=O)cc1 [atosiban] ([Mpa][dY](Et)ITNCP[Orn]G-NH2; disulfide 1-6)
Implantation rates per embryo transferred ([4]; total i.v. dose 37.5 mg before and up to 2 h after embryo transfer, placebo 12.6%): 20.4%
early miscarriages ([4]; total i.v. dose 37.5 mg, placebo 24.4%): 16.7%
clinical pregnancy rates per cycle ([4]; total i.v. dose 37.5 mg, placebo 28.9%): 46.7%

CC(NCCc1ccc(O)cc1)C(O)c1ccc(O)cc1 (stereo not drawn) [ritodrine]
effect on pregnancy rates [1]: positive effect

Protamine sulphate [PS]
relaxation of uterine contractions ([5]; calcium ion-induced uterine contractions): dose-dependent relaxation
relaxation of uterine contractions ([5]; spontaneously active uteri): dose-dependent relaxation
EC50 for PS-treated uteri ([5]; spontaneously active vs calcium ion-induced uteri): lower in spontaneously active uteri than in calcium ion-induced uteri
